Experimental data taken from patent US8900636B2, “Controlled release compositions” (Evonik Corporation, priority 2003, dated 2014).

Assay: Stability of free peptide incubated in release medium (HPLC)
Assay type: physicochemical
Details: PBS, pH 7.2, 37° C., after 49 days
Protocol: Octreotide acetate as the free peptide was measured to be 95% intact by high-pressure liquid chromatography (HPLC) following incubation in the release medium (PBS, pH 7.2, 37° C.) after 49 days. In contrast, incubation of octreotide acetate PLGA microparticle formulations produced 55% of modified peptide species after 70 days in the release medium (PBS, pH 7.2, 37° C., Table 2). […] The masses found were consistent with random acylation, for example, peptide plus one or two glycolic or lactic acid monomers in any combination. It may be that acylation products arise from attack on PLGA fragments or the polymer backbone by nucleophilic moieties in octreotide. At a lower pH these moieties likely would be protonated reducing their nucleophilicity and consequently the amount of acylated product. It was observed that formation of acylated byproducts for octreotide acetate PLGA microparticles incubated in 100 mM sodium acetate (NaOAc, pH 4.0) buffer was reduced to 1.25% at 49 days, in marked contrast to the results for PBS buffer (55%).

- intact peptide by HPLC: 95%
Compound: C[C@@H](O)[C@@H]1NC(=O)[C@H](CCCCN)NC(=O)[C@@H](Cc2c[nH]c3ccccc23)NC(=O)[C@H](Cc2ccccc2)NC(=O)[C@@H](NC(=O)[C@H](N)Cc2ccccc2)CSSC[C@@H](C(=O)N[C@H](CO)[C@@H](C)O)NC1=O [Octreotide acetate, octreotide acetate]
